PubChem BioAssay (NCI)
Where “and” joins values, the source holds several entries; their conditions need not be identical. Equal entries are not always repeated.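 Here, GI50 denotes the concentration required for 50% inhibition of growth. TGI: total growth inhibition.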

How the values were obtained:
Test in all cases: NCI tumour cell line growth inhibition, 384-well format
[1] = tested on: 786-0 renal
[2] = tested on: A498 renal
[3] = tested on: A549 NSCLC
[4] = tested on: ACHN renal
[5] = tested on: BT-549 breast
[6] = tested on: CAKI-1 renal
[7] = tested on: CCRF-CEM leukemia
[8] = tested on: COLO 205 colon
[9] = tested on: DU-145 prostate
[10] = tested on: EKVX NSCLC
[11] = tested on: HCC-2998 colon
[12] = tested on: HCT-116 colon
[13] = tested on: HCT-15 colon
[14] = tested on: HL-60(TB) leukemia
[15] = tested on: HOP-62 NSCLC
[16] = tested on: HOP-92 NSCLC
[17] = tested on: HS 578T breast
[18] = tested on: HT29 colon
[19] = tested on: IGROV1 ovarian
[20] = tested on: K-562 leukemia
[21] = tested on: KM12 colon
[22] = tested on: LOX IMVI melanoma
[23] = tested on: M14 melanoma
[24] = tested on: MALME-3M melanoma
[25] = tested on: MCF7 breast
[26] = tested on: MDA-MB-231 breast
[27] = tested on: MDA-MB-435 melanoma
[28] = tested on: MDA-MB-468 breast
[29] = tested on: MOLT-4 leukemia
[30] = tested on: NCI-H226 lung
[31] = tested on: NCI-H23 lung
[32] = tested on: NCI-H322M lung
[33] = tested on: NCI-H460 NSCLC
[34] = tested on: NCI-H522 lung
[35] = tested on: NCI/ADR-RES ovarian
[36] = tested on: OVCAR-3 ovarian
[37] = tested on: OVCAR-4 ovarian
[38] = tested on: OVCAR-5 ovarian
[39] = tested on: OVCAR-8 ovarian
[40] = tested on: PC-3 prostate
[41] = tested on: RPMI-8226 leukemia
[42] = tested on: RXF 393 renal
[43] = tested on: SF-268 CNS
[44] = tested on: SF-295 CNS
[45] = tested on: SF-539 CNS
[46] = tested on: SK-MEL-28 melanoma
[47] = tested on: SK-MEL-5 melanoma
[48] = tested on: SK-OV-3 ovarian
[49] = tested on: SN12C renal
[50] = tested on: SNB-19 CNS
[51] = tested on: SNB-75 CNS
[52] = tested on: SR leukemia
[53] = tested on: SW-620 colon
[54] = tested on: T-47D breast
[55] = tested on: TK-10 renal
[56] = tested on: U251 glioblastoma
[57] = tested on: UACC-257 melanoma
[58] = tested on: UACC-62 melanoma
[59] = tested on: UO-31 renal

Compound: Cn1cc(-c2nc(N[C@@H]3CCCC[C@@H]3N)c(F)c3c2C(=O)NC3)cn1
- GI50 [1]: 5.53 µM and 4.81 µM
- TGI [1]: 17.9 µM and 18.3 µM
- GI50 [2]: 0.559 µM and 1.3 µM
- TGI [2]: 10.4 µM and 8.94 µM
- GI50 [3]: 4.08 µM and 6.73 µM
- TGI [3]: 33.2 µM and 32.9 µM
- GI50 [4]: 2 µM and 6.59 µM
- TGI [4]: 59.2 µM and > 100 µM
- GI50 [5]: 2.17 µM and 5.01 µM
- TGI [5]: 5.18 µM and 15.9 µM
- GI50 [6]: 3.22 µM and 4.17 µM
- TGI [6]: 19.7 µM and 19.3 µM
- GI50 [7]: 1.48 µM and 1.75 µM
- TGI [7]: 2.97 µM and 3.26 µM
- GI50 [8]: 1.45 µM and 1.85 µM
- TGI [8]: 2.9 µM and 3.53 µM
- GI50 [9]: 4.08 µM and 9.76 µM
- TGI [9]: 30.8 µM and 38.1 µM
- GI50 [10]: 5.37 µM and 12.8 µM
- TGI [10]: 29.5 µM and 62.4 µM
- TGI [11]: 20.6 µM and 38.7 µM
- GI50 [12]: 2.04 µM and 2.98 µM
- TGI [12]: 17.3 µM and 17.9 µM
- GI50 [13]: 5.33 µM and 10.6 µM
- TGI [13]: 28.3 µM and > 100 µM
- GI50 [14]: 3.18 µM and 2.76 µM
- TGI [14]: 14.7 µM and 13.3 µM
- GI50 [15]: 2.31 µM and 4.56 µM
- TGI [15]: 9.99 µM and 16.5 µM
- GI50 [16]: 3.89 µM and 5.41 µM
- TGI [16]: 15.6 µM and 18.3 µM
- GI50 [17]: 2.21 µM and 11 µM
- TGI [17]: 12.1 µM and 25.5 µM
- GI50 [18]: 4.79 µM and 7.58 µM
- TGI [18]: 58.5 µM and 26.6 µM
- GI50 [19]: 2.99 µM and 10.9 µM
- TGI [19]: 28.9 µM and 90.9 µM
- GI50 [20]: 2.93 µM and 3.44 µM
- TGI [20]: 14 µM and 18.6 µM
- GI50 [21]: 0.339 µM and 0.445 µM
- TGI [21]: 25.2 µM and 45.1 µM
- GI50 [22]: 1.85 µM and 3.58 µM
- TGI [22]: 3.98 µM and 12.7 µM
- GI50 [23]: 0.615 µM and 1.56 µM
- TGI [23]: 25.7 µM and 14.5 µM
- GI50 [24]: 6.89 µM and 4.15 µM
- TGI [24]: 22.2 µM and 26 µM
- GI50 [25]: 2.89 µM and 19.2 µM
- TGI [25]: 36.5 µM and 81.2 µM
- GI50 [26]: 5 µM and 10.4 µM
- TGI [26]: 17.7 µM and 22.9 µM
- GI50 [27]: 4.49 µM and 6.35 µM
- TGI [27]: > 100 µM
- GI50 [28]: 3.08 µM and 4.3 µM
- TGI [28]: 6.44 µM and 11.7 µM
- GI50 [29]: 0.299 µM and 1.14 µM
- GI50 [30]: 2.08 µM and 4.38 µM
- TGI [30]: 7.05 µM and 27.9 µM
- GI50 [31]: 2.17 µM and 4.29 µM
- TGI [31]: 13 µM and 17.5 µM
- GI50 [32]: 15.5 µM and 28.7 µM
- TGI [32]: 38.9 µM and > 100 µM
- GI50 [33]: 2.61 µM and 3.15 µM
- TGI [33]: 13.5 µM and 14.3 µM
- GI50 [34]: 1.64 µM and 3.56 µM
- TGI [34]: 6.01 µM and 15.4 µM
- GI50 [35]: 38.8 µM and > 100 µM
- TGI [35]: > 100 µM
- GI50 [36]: 9.28 µM and 9.39 µM
- TGI [36]: 24.7 µM and 34.3 µM
- GI50 [37]: 15.2 µM and 21.4 µM
- TGI [37]: 30.5 µM and 43.7 µM
- GI50 [38]: 6.09 µM
- TGI [38]: 21.6 µM
- GI50 [39]: 6.08 µM and 12.2 µM
- TGI [39]: 19.4 µM and 25.2 µM
- GI50 [40]: 9.39 µM and 15.4 µM
- TGI [40]: 45.3 µM and 86.9 µM
- GI50 [41]: 0.537 µM and 1.52 µM
- TGI [41]: 2.19 µM and 4.13 µM
- GI50 [42]: 0.596 µM and 2.12 µM
- TGI [42]: 3.57 µM and 13 µM
- GI50 [43]: 2.79 µM and 9.19 µM
- TGI [43]: 15.2 µM and 45.5 µM
- GI50 [44]: 0.675 µM and 3.12 µM
- TGI [44]: 2.81 µM and 11.7 µM
- GI50 [45]: 1.35 µM and 3.09 µM
- TGI [45]: 3.56 µM and 13 µM
- GI50 [46]: 10.2 µM and 11.2 µM
- TGI [46]: 66.1 µM and > 100 µM
- TGI [47]: 17.8 µM and 34.5 µM
- GI50 [48]: 2.07 µM and 10.8 µM
- TGI [48]: 21.5 µM and 65.8 µM
- GI50 [49]: 2.09 µM and 1.95 µM
- TGI [49]: 10.9 µM and 7.66 µM
- GI50 [50]: 17.8 µM and 19.4 µM
- TGI [50]: 33.7 µM and 39.1 µM
- GI50 [51]: 1.88 µM and 5.16 µM
- TGI [51]: 4.98 µM and 19.4 µM
- GI50 [52]: 0.535 µM and 0.17 µM
- TGI [52]: 1.78 µM and 0.447 µM
- GI50 [53]: 2.37 µM and 5.69 µM
- TGI [53]: 7.78 µM and 25.8 µM
- GI50 [54]: 32.5 µM and 56.3 µM
- TGI [54]: 85.3 µM and > 100 µM
- GI50 [55]: 3.87 µM and 12.1 µM
- TGI [55]: 17.5 µM and 26.9 µM
- GI50 [56]: 14.2 µM and 17.6 µM
- TGI [56]: 27.9 µM and 32.8 µM
- GI50 [57]: 12.8 µM and 33.7 µM
- TGI [57]: 33.4 µM and > 100 µM
- GI50 [58]: 13.3 µM
- TGI [58]: 39.5 µM
- GI50 [59]: 7.89 µM and 11 µM
- TGI [59]: 20.5 µM and 23.2 µM
